In patent publication US10653672B2, “Myogenesis promotor, muscle atrophy inhibitor, medical composition and TAZ activator” (National University Corporation Tokyo Medical and Dental …, priority 2014, dated 2020):

How the values were obtained:
[1] = biological target: T1, interaction of TAZ and MyoD (Homo sapiens, UniProt Q9GZV5); experiment: Immunoprecipitation of FLAG-TAZ and HA-MyoD in HEK 293 cells; assay type: cell-based; settings: HEK 293 expressing FLAG-TAZ and HA-MyoD
T1 construct: expressed in transfected cells; host or cells: HEK 293 (human embryonic kidney cells)
Description: (2) For analyzing the effects of IBS008738 on the interaction of TAZ and MyoD, immunoprecipitation was performed on human embryonic kidney cells (HEK 293) expressing FLAG-TAZ and HA-MyoD, with anti-FLAF M2 beads.

[2] = tested on: C2C12 cells; experiment: Evaluation of myogenesis of C2C12 cells by fusion index; assay type: cell-based, mouse; settings: differentiation condition 72 hours, DMSO as 1, average of three
Description: (1) C2C12 cells were grown to confluence under growth condition, and then in differentiation condition for 72 hours, in a culture medium added with DMSO, IBS008738 (exemplary compound 1) or exemplary compounds 2 to 44, at a concentration of 1 μM, 3 μM or 10 μM, respectively. Thereafter, the degree of myogenesis was evaluated by a fusion index (a value obtained by dividing the number of nuclei detected in multinucleated myosin heavy chain (MHC)-positive cells by the total number of the nuclei). Specifically, exemplary compounds were divided into five groups, and DMSO and IBS008738 were evaluated in each group as controls. The evaluation was conducted three times, and the average value and the standard deviation of the fusion index was relativized with the measured value of DMSO as 1.
C2C12 cells were passaged in a growth medium (DMEM containing 10% FBS) and differentiated in a differentiation medium (DMEM containing 2% horse serum (Invitrogen)).

[3] = tested on: C2C12 cells; experiment: Antagonistic action on myostatin in C2C12 cells; assay type: cell-based, mouse; settings: TAZ knocked down (si TAZ); with myostatin; differentiation condition 72 hours
From the text: Myostatin is a protein and a member of a transforming growth factor […] superfamily, and inhibits muscle growth and differentiation. Myostatin binds activin type IIB receptor and triggers SMAD2/3-dependent signaling. Since TAZ interacts with SMAD2/3, effects of IBS008738 on the signaling of myostatin was examined (FIGS. 8A to 8C). The line in the figures is 100 μm. The line and the error bar indicate the average value and the standard error, *p<0.05, […], ***p<0.001, ns refers to not significant.
(1) C2C12 cells in which TAZ was knocked down (si TAZ) and C2C12 cells in which TAZ was not knocked down (si Cont) were grown to confluence, respectively, A stock solution of 100 μg/mL myostatin in 4 mM […] with 0.1% (w/v) BSA and a stock solution of 10 mM IBS008738 in DMSO were prepared. The cells were cultured at differentiation condition for 72 hours in a 1 mL medium with 1 μL DMSO, a 1 mL medium with 1 μL myostatin stock solution, and a 1 mL medium with 1 μL IBS008738 stock solution. As a result, muscle formation of the C2C12 cells was inhibited in the case with only myostatin, but muscle formation of the C2C12 cells was recovered in the case with myostatin and IBS008738.
(2) The fusion index of C2C12 cells in which TAZ was knocked down (si TAZ) and C2C12 cells in which TAZ was not knocked down (si Cont), after being cultured under differentiation condition for 72 hours, was analyzed.
Expression of MHC of C2C12 cells in which TAZ was knocked down (si TAZ) and C2C12 cells in which TAZ was not knocked down (si Cont), after being cultured under differentiation condition for 72 hours, was analyzed by immunoblotting. As a result, expression of MHC decreased in the case with only myostatin, whereas it recovered in the case with myostatin and IBS008738 (see FIG. 8C).

[4] = tested on: Balb/c ByJ mice; experiment: Suppression of dexamethasone-induced muscle atrophy; assay type: in vivo, mouse
Description: (1) A 25 mg/mL dexamethasone stock solution in DMSO was prepared. Three Balb/c ByJ mice (6 week, female) were intraperitoneally injected with 20 μL of the dexamethasone stock solution, each day for a week. As a control group, three other individuals were injected with 20 μL of DMSO. On day 9, 11 and 13, each group of the mice was injected with a solution prepared by dissolving 0.3 μL of 10 mM IBS008738 stock solution in 100 μL PBS, on one hindlimb muscle, and with 100 μL PBS on the other hindlimb muscle. The mice were sacrificed at day 14, and the muscle tissues were fixed and stained with hematoxylin and eosin (see FIG. 8D). It was observed that the muscle fibers of the mice administered with dexamethasone were shrinked.
(2) The cross section of the muscle fibers of the individual intraperitoneally injected with dexamethasone was stained with an anti-laminin antibody and observed. […] The cross-section area of muscle fibers (500 per individual) of the three mice was measured. As a result, the area of the individual injected with IBS008738 was greater than the area of the individual injected with DMSO (see FIG. 9F). The cross-section area of muscle fibers was analyzed with Image J software.

[5] = tested on: Pax3 reporter; experiment: Luciferase reporter assay, Pax3 reporter; assay type: cell-based; settings: Mus musculus, C2C12, 24 h, C2C12 cells expressing reporter and TAZ WT, differentiation medium 24 hours
Description: The effect and its degree on the activity of a reporter, derived from a transcription factor that interacts with TAZ in C2C12 cells, were evaluated. Specifically, C2C12 cells expressing luciferase reporters corresponding to MyoD, TEAD, SMAD and Pax3 and C2C12 cells expressing these luciferase reporters and TAZ were cultured in a culture medium added with IBS008738 or DMSO at a concentration of 10 μM, respectively. […] The line and the error bar indicate the average value and the standard error, *p<0.05, **p<0.01, ns refers to not significant.
Transfection of the luciferase reporters was performed to the C2C12 cells after being plated at 12-well plates (1×10^5 cells/well) and cultured overnight. As the luciferase reporters, pGL3 Myo-184- (MyoD-), 8×GT-IIC-δ51LucII- (TEAD-), 9×CAGA-MLP-(SMAD-), and p(PRS-1/-4)3- (Pax3-) were transfected to the cells alone or with TAZ. These reporter vectors were from Keiji Miyazawa (Yamanashi University), Hiroshi Sasaki (Kumamoto University) and Hiroki Kurihara (The University of Tokyo).
Immediately after the transfection, DMSO or IBS008738 was added at a concentration of 10 μM, respectively. After growing the cells to confluence, the cells were transferred to a differentiation medium with DMSO or IBS008738, and cultured for 24 hours before the luciferase assay.

T1 sequence (Q9GZV5 whole entry): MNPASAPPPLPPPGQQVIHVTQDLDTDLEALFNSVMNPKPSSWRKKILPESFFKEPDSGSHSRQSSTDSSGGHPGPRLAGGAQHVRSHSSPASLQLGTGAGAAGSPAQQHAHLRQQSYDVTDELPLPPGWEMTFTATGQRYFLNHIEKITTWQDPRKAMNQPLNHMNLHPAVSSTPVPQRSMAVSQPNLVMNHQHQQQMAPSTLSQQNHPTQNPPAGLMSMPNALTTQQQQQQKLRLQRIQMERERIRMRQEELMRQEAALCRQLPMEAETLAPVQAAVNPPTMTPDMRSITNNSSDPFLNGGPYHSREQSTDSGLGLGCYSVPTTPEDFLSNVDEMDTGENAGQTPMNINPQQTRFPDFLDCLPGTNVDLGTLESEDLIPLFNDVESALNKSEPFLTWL

Cc1ccc(-n2cnc(/N=C/N3CCOCC3)c2C(=O)c2ccccc2)cc1 [exemplary compound 1]
interaction of TAZ and MyoD compared with DMSO [1]: slightly promoted
relative fusion index (FI) ([2]; Group 1, 1 μM): 1.47
relative fusion index (FI) ([2]; Group 1, 3 μM): 1.89
relative fusion index (FI) ([2]; Group 1, 10 μM): 2.00
relative fusion index (FI) ([2]; Group 2, 1 μM): 1.33
relative fusion index (FI) ([2]; Group 2, 3 μM): 1.80
relative fusion index (FI) ([2]; Group 2, 10 μM): 2.03
relative fusion index (FI) ([2]; Group 3, 1 μM): 1.28
relative fusion index (FI) ([2]; Group 3, 3 μM): 1.67
relative fusion index (FI) ([2]; Group 3, 10 μM): 1.76
relative fusion index (FI) ([2]; Group 4, 1 μM): 1.13
relative fusion index (FI) ([2]; Group 4, 3 μM): 1.53
relative fusion index (FI) ([2]; Group 4, 10 μM): 1.68
relative fusion index (FI) ([2]; Group 5, 1 μM): 1.10
relative fusion index (FI) ([2]; Group 5, 3 μM): 1.18
relative fusion index (FI) ([2]; Group 5, 10 μM): 1.33
muscle formation of the C2C12 cells [3]: did not recover
cross-section area of muscle fibers compared with DMSO ([4]; dexamethasone mice, 500 fibers per individual, three mice): greater
shrinkage of muscle fibers compared with DMSO ([4]; dexamethasone mice, cross section stained with anti-laminin antibody): more suppressed
effect on muscle fibers ([4]; mice intraperitoneally injected with DMSO (no dexamethasone), IBS008738 into hindlimb muscle on day 9, 11 and 13, hematoxylin and eosin): No significant effect
shrinkage of muscle fibers ([4]; mice intraperitoneally injected with dexamethasone, IBS008738 into hindlimb muscle on day 9, 11 and 13, hematoxylin and eosin, day 14): partly suppressed
fold induction at 10 µM [5]: 0.8
